In patent publication US7935670B2, “Hepatitis C virus inhibitors” (Bristol-Myers Squibb Company, priority 2006, dated 2011):
Read-outs that look alike come from different tables or passages of the source.

Key:
[1] = test system: HCV replicon in HUH-7 cells; assay: HCV replicon FRET assay; format: cell-based, HCV strain 1b; conditions: Hepatitis C virus
From the text: An HCV replicon whole cell system was established as described by Lohmann V, Korner F, Koch J, Herian U, Theilmann L, Bartenschlager R., Science 285(5424): 110-3 (1999). This system enabled us to evaluate the effects of our HCV Protease compounds on HCV RNA replication. Briefly, using the HCV strain 1b sequence described in the Lohmann paper (Assession number: AJ238799), an HCV cDNA was synthesized by Operon Technologies, Inc. (Alameda, Calif.), and the full-length replicon was then assembled in plasmid pGem9zf(+) (Promega, Madison, Wis.) using standard molecular biology techniques. The replicon consists of (i) the HCV 5′ UTR fused to the first 12 amino acids of the capsid protein, (ii) the neomycin phosphotransferase gene (neo), (iii) the IRES from encephalomyocarditis virus (EMCV), and (iv) HCV NS3 to NS5B genes and the HCV 3′ UTR. Plasmid DNAs were linearized with ScaI and RNA transcripts were synthesized in vitro using the T7 MegaScript transcription kit (Ambion, Austin, Tex.) according to manufacturer's directions. In vitro transcripts of the cDNA were transfected into the human hepatoma cell line, HUH-7. […] Resulting cell lines were characterized for positive and negative strand RNA production and protein production over time.
The HCV replicon FRET assay was developed to monitor the inhibitory effects of compounds described in the disclosure on HCV viral replication. HUH-7 cells, constitutively expressing the HCV replicon, were grown in Dulbecco's Modified Eagle Media (DMEM) (Gibco-BRL) containing 10% Fetal calf serum (FCS) (Sigma) and 1 mg/ml G418 (Gibco-BRL). Cells were seeded the night before (1.5×10^4 cells/well) in 96-well tissue-culture sterile plates. Compound and no compound controls were prepared in DMEM containing 4% FCS, 1:100 Penicillin/Streptomysin (Gibco-BRL), 1:100 L-glutamine and 5% DMSO in the dilution plate (0.5% DMSO final concentration in the assay). Compound/DMSO mixes were added to the cells and incubated for 4 days at 37° C. After 4 days, cells were first assessed for cytotoxicity using alamar Blue (Trek Diagnotstic Systems) for a CC50 reading. The toxicity of compound (CC50) was determined by adding 1/10th volume of alamar Blue to the media incubating the cells. After 4 h, the fluorescence signal from each well was read, with an excitation wavelength at 530 nm and an emission wavelength of 580 nm, using the Cytofluor Series 4000 (Perspective Biosystems). Plates were then rinsed thoroughly with Phosphate-Buffered Saline (PBS) (3 times 150 μl). The cells were lysed with 25 μl of a lysis assay reagent containing an HCV protease substrate (5× cell Luciferase cell culture lysis reagent (Promega #E153A) diluted to 1× with distilled water, NaCl added to 150 mM final, the FRET peptide substrate (as described for the enzyme assay above) diluted to 10 μM final from a 2 mM stock in 100% DMSO. The plate was then placed into the Cytofluor 4000 instrument which had been set to 340 nm excitation/490 nm emission, automatic mode for 21 cycles and the plate read in a kinetic mode. EC50 determinations were carried out as described for the IC50 determinations.

[2] = test system: HCV replicon (Renilla luciferase reporter) in HUH-7 cells; assay: HCV replicon luciferase reporter assay; format: cell-based, HCV strain 1b; conditions: Huh-7, 96 h, 4 days
[3] = target: T1, porcine pancreatic elastase (PPE) (Sus scrofa, UniProt P00772); assay: Specificity assay, porcine pancreatic elastase; format: biochemical; conditions: 2 h enzyme-inhibitor pre-incubation
T1 construct: purchased Sigma
T1 sequence (P00772 27-266): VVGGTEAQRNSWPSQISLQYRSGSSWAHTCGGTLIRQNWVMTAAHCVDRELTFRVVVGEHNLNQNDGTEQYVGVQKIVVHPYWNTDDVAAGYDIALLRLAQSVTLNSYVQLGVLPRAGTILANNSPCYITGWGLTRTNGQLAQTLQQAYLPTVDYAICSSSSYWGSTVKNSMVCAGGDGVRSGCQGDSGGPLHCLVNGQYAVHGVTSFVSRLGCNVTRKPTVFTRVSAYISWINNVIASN
Experimental: (§1) The specificities of compounds of the present disclosure were determined against a variety of serine proteases: human neutrophil elastase (HNE), porcine pancreatic elastase (PPE) and human pancreatic chymotrypsin and one cysteine protease: human liver cathepsin B. In all cases a 96-well plate format protocol using colorimetric p-nitroaniline (pNA) substrate specific for each enzyme was used as described previously (PCT Patent Application No. WO 00/09543) with some modifications to the serine protease assays. All enzymes were purchased from Sigma while the substrates were from Bachem.
(§2) Each assay included a 2 h enzyme-inhibitor pre-incubation at room temperature followed by addition of substrate and hydrolysis to ˜30% conversion as measured on a Spectramax Pro microplate reader. Compound concentrations varied from 100 to 0.4 μM depending on their potency.
(§3) 50 mM Tris(hydroxymethyl)aminomethane hydrochloride (Tris-HCl) pH 8, 0.5 M Sodium Sulfate (Na2SO4), 50 mM NaCl, 0.1 mM EDTA, 3% DMSO, 0.01% Tween-20 with:
(§4) 133 μM succ-AAA-pNA and 20 nM HNE or 8 nM PPE; 100 μM succ-AAPF-pNA and […] Chymotrypsin.
(§5) The percentage of inhibition was calculated using the formula: [1−((UVinh−UVblank)/(UVctl−UVblank))]×100
(§6) A non-linear curve fit was applied to the inhibition-concentration data, and the 50% effective concentration (IC50) was calculated by the use of Excel Xl-fit software.

[4] = test system: human pancreatic chymotrypsin; assay: Specificity assay, chymotrypsin; format: biochemical; conditions: 2 h enzyme-inhibitor pre-incubation
Experimental: as §1, §2, §3, §4, §5, §6

Q: With C=C[C@@H]1C[C@]1(NC(=O)[C@@H]1C[C@@H](OC(=O)c2ccccc2)CN1C(=O)[C@@H](NC(=O)OC(C)(C)C)C(C)(C)C)C(=O)NS(=O)(=O)C1CC1 [Compound 1] as the molecule, how does the EC50 ([1]; 96 h, HUH-7 replicon cells, 4 days, read-out: EC50 in the replicon FRET assay) read?
A: 484 nM

Q: What about the EC50 ([1]; Huh-7, read-out: Activity Range (EC50)) of the same molecule?
A: 200 to 1000 nM

Q: And the EC50 [2]?
A: 51 nM

Q: And the IC50 [3]?
A: > 200000 nM

Q: What about the IC50 [4] of the same molecule?
A: > 200000 nM
